We go through 1 substance from patent US9233127B2, “Compositions and methods for CXCR4 signaling and umbilical cord blood stem cell engraftment” (University of Virginia Patent Foundation, priority 2012, dated 2016).

One test has as its system CD34+ cells. In words: Transwell chemotaxis of CD34+ cells to an SDF-1 gradient (priming). The test is classed as cell-based, human. The method, then:
FIG. 11A-B—Effect of SLP and its components on chemotaxis of CD34^+ cells. Panel A: Chemotaxis of BM CD34^+ cells towards medium alone (control), SDF-1 low (10 ng/mL) alone, SLP (combined SLP from three patients), SDF-1 low+SLP, and SDF-1 high (300 ng/mL). Data are pooled from quadruplicate samples from three independent experiments. *p<0.00001. Panel B: Chemotaxis of UCB CD34^+ cells to medium alone (control), SDF-1 low (10 ng/mL) alone and SDF-1 low (10 ng/mL)+uPAR (1 μg/mL) or +ICAM (1 μg/mL) or +VCAM (1 μg/mL) or +FN (2 μg/mL), or +FG (4 μg/mL) or +C3a (1 μg/mL). Data are pooled from quadruplicate samples from three independent experiments. * p<0.00001.
Chemotaxis of CD34^+ cells to medium alone (control), C3a (1 μg/ml), C3adesArg (1 μg/ml), SDF-1 low (10 ng/mL) alone, and SDF-1 low (10 ng/mL)+C3a low (0.1 μg/ml) or SDF-1 low (10 ng/mL)+C3a (1 μg/ml) or SDF-1 low (10 ng/mL)+C3adesArg (1 μg/ml). Data are pooled from quadruplicate samples from three independent experiments.* p<0.00001.
FIG. 13A-B—Chemotaxis of cells to an SDF-1 gradient is lipid raft-dependent. Panel A: Chemotaxis of CD34^+ cells to medium alone (control), SDF-1 (300 ng/mL) and SDF-1 (300 ng/mL) after preincubation for 1 hr with Amphotericin (10 μg/mL) or Nystatin (50 μg/mL). Cells were collected after chemotaxis from the lower chambers and plated in a clonogenic assay. The number of CFU-GM and BFU-E colonies formed by harvested cells is shown as a percentage of control values. Data are pooled from quadruplicate samples from three independent experiments. *p<0.0001. Panel B: Chemotaxis of CD34^+ cells towards medium alone (control), SDF-1 low (10 ng/mL) alone, or SDF-1 low with cells exposed to C3a (1 μg/mL). Cells pretreated before chemotaxis for 1 hr with MβCD (2.5 mM) are shown as gray bars. Data are pooled from quadruplicate samples from three independent experiments. * p<0.00001.
HSPCs from the mPB engraft faster compared to HSPCs aspirated from BM. To test the hypothesis that mPB-derived HSPCs are primed in their responses to SDF-1 by molecules present in SLP, we pooled together SLP from three patients and exposed BM or UCB CD34^+ cells to the SLP during chemotaxis to a low (10 ng/mL) dose of SDF-1.
To address this issue further, the formation of rafts in the cells was perturbed by MβCD, which depletes cholesterol from the cell membrane. The CD34^+ cells were pre-incubated with MβCD for 1 hr. Chemotaxis to a low dose of SDF-1 in the presence of C3a (in the upper chambers) was evaluated.

Test [1] deals with murine BM-derived Sca-1+ cells. Description: Homing of primed murine Sca-1+ cells into BM of lethally irradiated syngeneic mice. The test is classed as in vivo. The settings on record: Sca-1+ cells preincubated with C3a 30 min, 16 hrs after transplant. The text has this: (§1) FIG. 16A-B—Panel A: C3a primes homing of murine CFU-GM and CFU-S into BM of lethally irradiated mice. Murine BM-derived Sca-1^+ cells (10^5/mouse) were transplanted into lethally irradiated syngeneic mice. At 16 hrs after transplant, cells were recovered from the femurs of transplanted animals and assayed in secondary cultures for the number of clonogenic CFU-GM (left panel) and, after transplant into secondarily irradiated animals, for the number of day-12 CFU-S (right panel). Data are pooled from three independent experiments using 10 mice each/tested cells (n=30). * p<0.0001. No HSPC cells were recovered from the marrow cavities of control animals (irradiated, not transplanted) Panel B: C3a primes homing of human CB and BM CD34^+ cells into the BM of lethally irradiated NOD/SCID mice. At 16 hrs after transplantation of human CD34^+ cells (10^6/animal), mice were sacrificed and CFU-GM colonies were assayed in methylcellulose cultures. Data are pooled from independent experiments preformed on three different CB- and three different BM samples using 2-4 mice/tested cell sample. p<0.0001.
As final proof of our hypothesis and to test whether the primed cells home better to BM, we primed murine BM-derived Sca-1^+ and human BM- and UCB-derived CD34^+ cells with C3a before their transplantation into lethally irradiated mice. […]

In another test the test system is UCB MNC. Description: In vitro migration assay UCB (CD34+ HSC enumerated by FACS). The class given is cell-based, human. The settings on record: C3a 1 ug/ml; 3 h chemotaxis assay. The method, then: FIG. 52—In Vitro Migration Assay UCB. UCB MNC are loaded in the top chamber and the number of CD34^+ HSC present after the 3 h chemotaxis assay in the lower chambers from trans-wells are enumerated by FACS.

For test [2], the system named is human BM- and UCB-derived CD34+ cells. In words: Homing of primed human CD34+ cells into BM of lethally irradiated NOD/SCID mice. The class given is in vivo.
Excerpt: as §1, with “At 16 hrs after transplantation of human CD34^+ cells (10^6/animal), mice were sacrificed and CFU-GM colonies were assayed in methylcellulose cultures.” left out
As final proof of our hypothesis and to test whether the primed cells home better to BM, we primed murine BM-derived Sca-1^+ and human BM- and UCB-derived CD34^+ cells with C3a before their transplantation into lethally irradiated mice. Sixteen hrs after transplantation, recipient mice were sacrificed and cells were recovered from their marrow cavities. […]

For the next test, the system named is UCB and BM CD34+ cells. In words: MMP secretion and trans-Matrigel migration of primed CD34+ cells. The class given is cell-based, human. The settings on record: UCB and BM CD34+ cells primed with C3a.

“Also recorded” adds a separate entry of the source.

On to “C3a: 77 amino acid residue protein derived from the human complement C3a precursor; SEQ ID NO:1”, for which, in the test on CD34+ cells (SDF-1 low 10 ng/mL, C3a or C3adesArg 1 μg/ml), the “chemotaxis of human CD34+ cells to low-threshold doses of SDF-1” value was “potentiate (prime) chemotaxis”. In the test on CD34+ cells (no SDF-1, 1 μg/ml), the “chemoattraction of CD34+ cells by the C3 cleavage fragment on its own” value was “neither C3 cleavage fragments chemoattract”. Also, the “homing of murine CFU-GM and CFU-S into BM” value in test [1] is “home more efficiently; also recorded: homed better; also recorded: primes homing”. In addition, the “rates of UCB chemotaxis in vitro” value in the test on UCB MNC is on record as “significantly higher rates”. For the same substance, in test [2] (24 h after injection of NOD/SCID mice, C3a primed UCB CD34+ HSC), the “marrow homing, number of CFU-GM harvested per femur” value is given as “enhanced marrow homing”. Also, in test [2] (CB and BM CD34+ cells preincubated with C3a 30 min, 16 hrs after transplantation), the “homing of human CFU-GM into BM” value was “home more efficiently; also recorded: homed better; also recorded: primes homing”. Also, in the test on UCB and BM CD34+ cells, the “MMP-9 and MMP-2 secretion” value is on record as “significantly increase”; the “trans-Matrigel migration toward a low dose of SDF-1” value is given as “significantly increase”.
